{
  "source": "paper PMC8191290",
  "about": "“Substrate specificities and reaction kinetics of the yeast oligosaccharyltransferase isoforms” (The Journal of Biological Chemistry, 2021)",
  "target": "T1, OST6 complex (Saccharomyces cerevisiae, UniProt P39007)",
  "T1 construct": "were purified separately from strains expressing only one type of complex; made in house; host or cells: Saccharomyces cerevisiae, BY4742-derived strain ost3::LEU2MX6 OST4-1D4::kanMX6 YEp352-OST6",
  "assay": "Synthetic LLO preferences and OST activity comparison, OST6 complex",
  "format": "biochemical",
  "conditions": "OST6 complex 0.5 μM, 25 μM TAMRA-YANATS, 50 μM LLO; n = 3",
  "protocol": "Figure 5 OST3 complex turns over both glycosylation substrates faster than the OST6 complex, but with similar substrate affinities.A, enzyme activity of OST3 and OST6 complexes. Reactions were performed with 25 μM peptide TAMRA-YANATS, 50 μM LLO C20, and varying concentrations of purified OST3 complex (blue) or OST6 complex (red). Glycopeptide product was measured by UPLC and initial rates of reaction were determined by linear regression of the initial phase of the reaction. Turnover rates were determined by linear regression of the initial rates of reaction measured across the enzyme concentrations of 0.01–0.1 μM for OST3 complex and 0.1–0.5 μM for OST6 complex. Error bars indicate standard deviations from the mean of three reaction sets (n = 3). B, synthetic LLO preferences of OST3 and OST6 complexes. […] Turnover rates were determined by linear regression of the initial phase of the reaction and accounting for the enzyme concentration in the reaction. […] C, quantification of kinetic parameters for the synthetic LLO C20. […] Turnover rates were determined by linear regression of the initial phase of the reaction and accounting for the enzyme concentration in the reaction. […] D, quantification of kinetic parameters for the peptide TAMRA-YANATS. […] Turnover rates were determined by linear regression of the initial phase of the reaction and accounting for the enzyme concentration in the reaction. […]",
  "data": [
    {"smiles": "CC(=O)N[C@H]1[C@@H](OP(=O)(O)OP(=O)(O)OC/C=C(\\C)CC/C=C(\\C)CCC=C(C)C)O[C@H](CO)[C@@H](O[C@@H]2O[C@H](CO)[C@@H](O)[C@H](O)[C@H]2NC(C)=O)[C@@H]1O", "note": "[LLO C15]", "values": [
      {"measurement": "turnover rate ranking among LLO analogs", "value": "lowest reaction rates"}
    ]}
  ]
}
